This note sets out measurements from patent US20040097740A1, “Method for producing delta 1-pyrrolines” (priority 2000, published 2004).

A short description of data set [1]: log P determination by HPLC on reverse-phase column (C 18), EEC Directive 79/831 Annex V.A8. In kind it is physicochemical. The settings on record: 43° C.; for chromatographic logP: reverse-phase HPLC column (C 18). The procedure:
The determination is carried out in the acidic range at pH 2.3 using the mobile phases 0.1% aqueous phosphoric acid and acetonitrile; linear gradient from 10% acetonitrile to 90% acetonitrile.

Where [2] appears, read: pH 2.3, pH 2.3, preparation example, 0.1% aqueous phosphoric acid/acetonitrile gradient, read-out: HPLC: log P (pH 2.3).

Like-named read-outs stand apart in the source and are kept apart here.

Consider `Fc1cccc(F)c1C1=NC(c2ccc(Br)cc2)CC1` (stereo not drawn) [Example I-1, 2-(4-bromophenyl)-5-(2,6-difluorophenyl)-3,4-dihydro-2H-pyrrole], for which the melting point (in general, the temperature, or range, at which the solid turns liquid) was found to be 48 °C. Further, the “HPLC: log P (pH 2.3)” value in data set [1] (pH 2.3, preparation example, 0.1% aqueous phosphoric acid/acetonitrile gradient) is 2.71. For the same molecule, the chromatographic logP in data set [1] (setting [2]) was 2.72.
Molecule `O=C(c1c(F)cccc1F)C1CC1c1ccc(Br)cc1` (stereo not drawn) [Example V-1, [2-(4-bromophenyl)cyclopropyl](2,6-difluorophenyl)methanone] yielded a melting point of 64 to 65 °C.
In the case of `[N-]=[N+]=NC(CCC(=O)c1c(F)cccc1F)c1ccc(Br)cc1` (stereo not drawn) [II-1, 4-(4-bromophenyl)-4-azido-1-(2,6-difluorophenyl)-1-butanone], the chromatographic logP in data set [1] (pH 2.3, azides of the formula (II), acidic range pH 2.3, read-out: logP*) worked out at 4.47; in data set [1] (setting [2]), 4.47.
Regarding `O=C(CCC(Cl)c1ccc(Br)cc1)c1c(F)cccc1F` (stereo not drawn) [III-1, 4-(4-bromophenyl)-4-chloro-1-(2,6-difluorophenyl)-1-butanone], the chromatographic logP in data set [1] (pH 2.3, haloketones of the formula (III), acidic range pH 2.3, read-out: logP*) came out at 4.43; in data set [1] (setting [2]) it was 4.52.
`O=C(/C=C/c1ccc(Br)cc1)c1c(F)cccc1F` [VI-1, (2E)-3-(4-bromophenyl)-1-(2,6-difluorophenyl)-2-propen-1-one] registered a melting point of 71 °C.
